Laboratory results taken from article PMC11420244, “Evaluation of the effect of modafinil on the pharmacokinetics of encorafenib and binimetinib in patients with BRAF V600-mutant advanced solid tumors” (Cancer Chemotherapy and Pharmacology, 2024).
Where two headings read alike, the source gives them in different places.

Experiments:
[1] = Reported DDI studies of CYP3A substrates with strong, moderate or weak CYP3A inducers; assay type: in vivo
From the text: Another strategy to predict the effect strong induction may have on encorafenib PK, or the PK of other CYP3A substrates, but with fewer assumptions was proposed in a review by Molenaar-Kuijsten et al.. Based on a review of 12 approved oral anticancer drugs primarily metabolized by CYP3A, if no clinical DDI data were available for moderate inducers, an effect of 50% compared to strong inducers could be assumed. After expanding the dataset of Molenaar-Kuijsten to include 3 additional approved oral anti-cancer drugs (fuzuloparib, pirtobrutinib, and fedratinib) metabolized by CYP3A, we applied this approach in the opposite direction (lack of clinical data for the effect of strong CYP3A4 inducers) given available clinical DDI data generated in this study for encorafenib (Table 3). The median ratio of the decrease for a strong inducer to a moderate inducer was 1.56 and ranged from 1.15 for cobimetinib to 2.43 for palbociclib. […] The upper end of this range is consistent with PBPK simulations conducted prior to the study, indicating encorafenib exposures would decrease by ∼ 58% in combination with rifampin (based on a model with some simplifying assumptions) and would also be consistent with the recommendations based on in vitro data to avoid strong inducers in combination with encorafenib. This approach to managing potential coadminsitration of encorafenib with a strong inducer of CYP3A is the most conservative due to lack of more precise extrapolation methods and clincial data.

[2] = cited from earlier work; for Effect of Strong CYP3A Inducer on AUC (decrease): Rifampin
[3] = cited from earlier work

SMILES	Effect of Moderate CYP3A Inducer on AUC (decrease) ([2]; Efavirenz)	Effect of Strong CYP3A Inducer on AUC (decrease) [2]	Strong CYP3A Inducer Effect /Moderate CYP3A Inducer Effect ([1]; ratio of AUC decreases)	other results
C=CC(=O)Nc1cc(Nc2nccc(-c3cn(C)c4ccccc34)n2)c(OC)cc1N(C)CCN(C)C [Osimertinib]	↓ 42%	↓ 78.5%		Strong CYP3A Inducer Effect /Moderate CYP3A Inducer Effect ([1]; human, in vivo): 1.87; Effect of Strong CYP3A Inducer on AUC (decrease) ([2]; listed as osimertinib): 87%
CC(=O)c1c(C)c2cnc(Nc3ccc(N4CCNCC4)cn3)nc2n(C2CCCC2)c1=O [Palbociclib]	38%	↓ 85.2%	2.43	Effect of Moderate CYP3A Inducer on AUC (decrease) ([2]; Modafinil): 32%; Effect of Moderate CYP3A Inducer on AUC (decrease), mean ([2]; mean of modafinil and efavirenz): ↓ 35% (mean)
COc1ccc(F)cc1C(=O)NCc1ccc(-c2nn([C@@H](C)C(F)(F)F)c(N)c2C(N)=O)cc1 [Pirtobrutinib]	↓ 49%	↓ 71%	1.45	
Cc1c(C(=O)Nc2ccc(N3C[C@@H](C)O[C@@H](C)C3)nc2)cccc1-c1ccc(OC(F)(F)F)cc1 [Sonidegib]	↓ 49%	↓ 76.6%	1.56	
O=C1Nc2ccc(Cl)cc2[C@@](C#CC2CC2)(C(F)(F)F)O1 [efavirenz]				Patients with neuropsychiatric effects [3]: up to 70%
NC(=O)C[S+]([O-])C(c1ccccc1)c1ccccc1 (stereo not drawn) [modafinil]				Patients with headache (only observed AE above this frequency) [3]: > 15%
Cc1nnc2n1-c1ccc(Cl)cc1C(c1ccccc1Cl)=NC2 [triazolam]				Decrease on mean AUCinf with modafinil ([2]; modafinil 200 mg for 7 days followed by 400 mg for 21 days): 59%
